Assay results taken from patent US9056876B2, “Substituted 1H-pyrazolo[3′,4′,4,5]thieno[2,3-b]pyridin-3-amine analogs as positive allosteric modulators of the muscarinic acetylcholine receptor M4” (VANDERBILT UNIVERSITY, priority 2011, dated 2015).

Target: T1, mAChR M4 (UniProt P08173)
T1 construct: hM1 and hM4 cDNAs were purchased from Missouri S&T cDNA Resource
T1 sequence (P08173 1-479): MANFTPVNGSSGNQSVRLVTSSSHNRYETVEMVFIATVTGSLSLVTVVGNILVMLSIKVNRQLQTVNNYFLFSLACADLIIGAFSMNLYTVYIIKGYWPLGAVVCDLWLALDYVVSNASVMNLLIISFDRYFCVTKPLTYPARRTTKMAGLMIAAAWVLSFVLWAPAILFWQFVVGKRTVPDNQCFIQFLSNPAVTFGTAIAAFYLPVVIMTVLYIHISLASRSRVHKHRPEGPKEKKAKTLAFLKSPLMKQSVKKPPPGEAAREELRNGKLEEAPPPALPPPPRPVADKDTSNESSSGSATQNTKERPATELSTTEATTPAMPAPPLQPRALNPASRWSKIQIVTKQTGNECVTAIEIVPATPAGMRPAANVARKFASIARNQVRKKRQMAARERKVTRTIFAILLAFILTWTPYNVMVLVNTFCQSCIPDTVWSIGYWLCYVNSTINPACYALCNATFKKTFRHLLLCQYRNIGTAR
Test: mAChR M4 cell-based functional assay (calcium mobilization, Fluo-4, FDSS)
Conditions: for Emax (%)*: % ACh maximum at 30 μM; for pEC50: positive allosteric modulator activity, EC20 acetylcholine response; for pEC50 / EC50: CHO-K1 cells; for EC50: positive allosteric modulator activity: concentration-dependent increase in the EC20 acetylcholine response, >10 μM estimated for low potency (no plateau)
In short: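 CHO-K1 cells stably expressing hM4 or rM4 with chimeric Gqi5, loaded with Fluo-4 AM for 50 min at 37° C. Calcium read on FDSS 6000 over 300 s: compound added at 4 s, acetylcholine EC20 at 144 s and EC80 at 230 s. Agonist, PAM (EC20 increase) and antagonist (EC80 decrease) values fitted by four-parameter logistic.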

`COc1ccc(CNc2nn(C)c3c2sc2nc(C)cc(C)c23)c(OC)c1` [Compound 61, N-(2,4-dimethoxybenzyl)-1,6,8-trimethyl-1H-pyrazolo[3′,4′:4,5]thieno[2,3-b]pyridin-3-amine] was tested, and the “Emax (%)*” value was 33%, the pEC50 was 6.35 and the EC50 was 450 nM.

With `Cc1ccnc2sc3c(NCc4ccncc4)nn(C)c3c12` [Compound 62, 1,8-dimethyl-N-(pyridin-4-ylmethyl)-1H-pyrazolo[3′,4′:4,5]thieno[2,3-b]pyridin-3-amine] the “Emax (%)*” value was 74%, the pEC50 was 6.19 and the EC50 was 640 nM.

With `COc1ccc(CNc2nn(C)c3c2sc2nccc(C)c23)cc1` [Compound 63, N-(4-methoxybenzyl)-1,8-dimethyl-1H-pyrazolo[3′,4′:4,5]thieno[2,3-b]pyridin-3-amine] the “Emax (%)*” value was 80%, the pEC50 was 5.77 and the EC50 was 1700 nM.

For `Cc1cc(C)c2c(n1)sc1c(NC3CCCC3)nn(C)c12` [Compound 64, N-cyclopentyl-1,6,8-trimethyl-1H-pyrazolo[3′,4′:4,5]thieno[2,3-b]pyridin-3-amine], the “Emax (%)*” value was 83%, the pEC50 was 6.85 and the EC50 was 140 nM.

In the case of `Cc1cc(C)c2c(n1)sc1c(NC3CCOCC3)nn(C)c12` [Compound 65, 1,6,8-trimethyl-N-(tetrahydro-2H-pyran-4-yl)-1H-pyrazolo[3′,4′:4,5]thieno[2,3-b]pyridin-3-amine], the “Emax (%)*” value is reported as 78%, the pEC50 is reported as 6.00 and the EC50 is reported as 1000 nM.

In the case of `Cc1cc(C)c2c(n1)sc1c(NC3CCCCC3)nn(C)c12` [Compound 66, N-cyclohexyl-1,6,8-trimethyl-1H-pyrazolo[3′,4′:4,5]thieno[2,3-b]pyridin-3-amine], the “Emax (%)*” value is reported as 73%, the pEC50 is reported as 5.92 and the EC50 is reported as 1200 nM.

In the case of `Cc1ccc2c(n1)sc1c(NCc3ccncc3)nn(C)c12` [Compound 67, 1,6-dimethyl-N-(pyridin-4-ylmethyl)-1H-pyrazolo[3′,4′:4,5]thieno[2,3-b]pyridin-3-amine], the “Emax (%)*” value is reported as 80%, the pEC50 is reported as 5.96 and the EC50 is reported as 1100 nM.

For `Cc1ccnc2sc3c(NCc4ccccc4)nn(C)c3c12` [Compound 68, N-benzyl-1,8-dimethyl-1H-pyrazolo[3′,4′:4,5]thieno[2,3-b]pyridin-3-amine], the “Emax (%)*” value was 75%, the pEC50 was 6.24 and the EC50 was 580 nM.

With `Cc1ccnc2sc3c(NCC4CC4)nn(C)c3c12` [Compound 69, N-(cyclopropylmethyl)-1,8-dimethyl-1H-pyrazolo[3′,4′:4,5]thieno[2,3-b]pyridin-3-amine] the “Emax (%)*” value was 77%, the pEC50 was 5.89 and the EC50 was 1300 nM.

With `Cc1ccc2c(n1)sc1c(NC(C)C)nn(C)c12` [Compound 70, N-isopropyl-1,6-dimethyl-1H-pyrazolo[3′,4′:4,5]thieno[2,3-b]pyridin-3-amine] the “Emax (%)*” value was 62%, the pEC50 was less than 5.00 and the EC50 was greater than 10000 nM.

In the case of `Cc1ccnc2sc3c(NCc4ccco4)nn(C)c3c12` [Compound 71, N-(furan-2-ylmethyl)-1,8-dimethyl-1H-pyrazolo[3′,4′:4,5]thieno[2,3-b]pyridin-3-amine], the “Emax (%)*” value is reported as 66%, the pEC50 is reported as 6.00 and the EC50 is reported as 1000 nM.

`COc1ccc(CNc2n[nH]c3c2sc2nc(C)ccc23)cc1` [Compound 72, N-(4-methoxybenzyl)-6-methyl-1H-pyrazolo[3′,4′:4,5]thieno[2,3-b]pyridin-3-amine] was tested, and the “Emax (%)*” value was 59%, the pEC50 was 5.74 and the EC50 was 1800 nM.

In the case of `Cc1cc(C)c2c(n1)sc1c(NC3CCSC3)nn(C)c12` (stereo not drawn) [Compound 73, 1,6,8-trimethyl-N-(tetrahydrothiophen-3-yl)-1H-pyrazolo[3′,4′:4,5]thieno[2,3-b]pyridin-3-amine], the “Emax (%)*” value is reported as 84%, the pEC50 is reported as 7.06 and the EC50 is reported as 87 nM.

With `Cc1cc(C)c2c(n1)sc1c(NC3CCN(C)CC3)nn(C)c12` [Compound 74, 1,6,8-trimethyl-N-(1-methylpiperidin-4-yl)-1H-pyrazolo[3′,4′:4,5]thieno[2,3-b]pyridin-3-amine] the “Emax (%)*” value was 52%, the pEC50 was 5.52 and the EC50 was 3000 nM.

In the case of `Cc1cc(C)c2c(n1)sc1c(NCc3ccc(S(C)(=O)=O)cc3)nn(C)c12` [Compound 75, 1,6,8-trimethyl-N-(4-(methylsulfonyl)benzyl)-1H-pyrazolo[3′,4′:4,5]thieno[2,3-b]pyridin-3-amine], the “Emax (%)*” value is reported as 73%, the pEC50 is reported as 6.60 and the EC50 is reported as 250 nM.

In the case of `Cc1cc(C)c2c(n1)sc1c(NCc3cccnc3)nn(C)c12` [Compound 76, 1,6,8-trimethyl-N-(pyridin-3-ylmethyl)-1H-pyrazolo[3′,4′:4,5]thieno[2,3-b]pyridin-3-amine], the “Emax (%)*” value is reported as 68%, the pEC50 is reported as 6.66 and the EC50 is reported as 220 nM.

In the case of `Cc1cc(C)c2c(n1)sc1c(NCc3ccccn3)nn(C)c12` [Compound 77, 1,6,8-trimethyl-N-(pyridin-2-ylmethyl)-1H-pyrazolo[3′,4′:4,5]thieno[2,3-b]pyridin-3-amine], the “Emax (%)*” value is reported as 55%, the pEC50 is reported as 6.27 and the EC50 is reported as 540 nM.

`Cc1cc(C)c2c(n1)sc1c(NCc3ccc(C)o3)nn(C)c12` [Compound 78, 1,6,8-trimethyl-N-((5-methylfuran-2-yl)methyl)-1H-pyrazolo[3′,4′:4,5]thieno[2,3-b]pyridin-3-amine] was tested, and the “Emax (%)*” value was 84%, the pEC50 was 7.05 and the EC50 was 90 nM.

In the case of `Cc1cc(C)c2c(n1)sc1c(NCc3ccc(Cl)o3)nn(C)c12` [Compound 79, N-((5-chlorofuran-2-yl)methyl)-1,6,8-trimethyl-1H-pyrazolo[3′,4′:4,5]thieno[2,3-b]pyridin-3-amine], the “Emax (%)*” value is reported as 80%, the pEC50 is reported as 6.51 and the EC50 is reported as 310 nM.

For `Cc1cc(C)c2c(n1)sc1c(NCc3ccsc3)nn(C)c12` [Compound 80, 1,6,8-trimethyl-N-(thiophen-3-ylmethyl)-1H-pyrazolo[3′,4′:4,5]thieno[2,3-b]pyridin-3-amine], the “Emax (%)*” value was 71%, the pEC50 was 7.21 and the EC50 was 62 nM.

In the case of `Cc1cc(C)c2c(n1)sc1c(NCc3ccoc3)nn(C)c12` [Compound 81, N-(furan-3-ylmethyl)-1,6,8-trimethyl-1H-pyrazolo[3′,4′:4,5]thieno[2,3-b]pyridin-3-amine], the “Emax (%)*” value is reported as 77%, the pEC50 is reported as 7.16 and the EC50 is reported as 69 nM.

`Cc1cc(C)c2c(n1)sc1c(NCc3csc(C)n3)nn(C)c12` [Compound 82, 1,6,8-trimethyl-N-((2-methylthiazol-4-yl)methyl)-1H-pyrazolo[3′,4′:4,5]thieno[2,3-b]pyridin-3-amine] was tested, and the “Emax (%)*” value was 63%, the pEC50 was 6.41 and the EC50 was 390 nM.

In the case of `Cc1cc(C)c2c(n1)sc1c(NCC3CCCO3)nn(C)c12` (stereo not drawn) [Compound 83, 1,6,8-trimethyl-N-((tetrahydrofuran-2-yl)methyl)-1H-pyrazolo[3′,4′:4,5]thieno[2,3-b]pyridin-3-amine], the “Emax (%)*” value is reported as 52%, the pEC50 is reported as 6.02 and the EC50 is reported as 960 nM.

With `Cc1cc(C)c2c(n1)sc1c(NCc3cccc4c3OCO4)nn(C)c12` [Compound 84, N-(benzo[d][1,3]dioxol-4-ylmethyl)-1,6,8-trimethyl-1H-pyrazolo[3′,4′:4,5]thieno[2,3-b]pyridin-3-amine] the “Emax (%)*” value was 50%, the pEC50 was 6.72 and the EC50 was 190 nM.

For `Cc1cc(C)c2c(n1)sc1c(NCC3CCCN3C(=O)OC(C)(C)C)nn(C)c12` (stereo not drawn) [Compound 85, tert-butyl 2-(((1,6,8-trimethyl-1H-pyrazolo[3′,4′:4,5]thieno[2,3-b]pyridin-3-yl)amino)methyl)pyrrolidine-1-carboxylate], the “Emax (%)*” value was 37%, the pEC50 was 5.48 and the EC50 was 3300 nM.

`Cc1cc(C)c2c(n1)sc1c(NCC3CCCN3)nn(C)c12` (stereo not drawn) [Compound 86, 1,6,8-trimethyl-N-(pyrrolidin-2-ylmethyl)-1H-pyrazolo[3′,4′:4,5]thieno[2,3-b]pyridin-3-amine] was tested, and the “Emax (%)*” value was 40%, the pEC50 was 5.96 and the EC50 was 1100 nM.

In the case of `Cc1cc(C)c2c(n1)sc1c(NCc3ccc4c(c3)OCCO4)nn(C)c12` [Compound 87, N-((2,3-dihydrobenzo[b][1,4]dioxin-6-yl)methyl)-1,6,8-trimethyl-1H-pyrazolo[3′,4′:4,5]thieno[2,3-b]pyridin-3-amine], the “Emax (%)*” value is reported as 66%, the pEC50 is reported as 6.80 and the EC50 is reported as 160 nM.

In the case of `Cc1cc(C)c2c(n1)sc1c(NCc3ccc4[nH]ccc4c3)nn(C)c12` [Compound 88, N-((1H-indo1-5-yl)methyl)-1,6,8-trimethyl-1H-pyrazolo[3′,4′:4,5]thieno[2,3-b]pyridin-3-amine], the “Emax (%)*” value is reported as 67%, the pEC50 is reported as 5.89 and the EC50 is reported as 1300 nM.

`Cc1cc(C)c2c(n1)sc1c(NCc3cc4ccccc4n3C)nn(C)c12` [Compound 89, 1,6,8-trimethyl-N-((1-methyl-1H-indo1-2-yl)methyl)-1H-pyrazolo[3′,4′:4,5]thieno[2,3-b]pyridin-3-amine] was tested, and the “Emax (%)*” value was 51%, the pEC50 was less than 5.00 and the EC50 was greater than 10000 nM.

In the case of `Cc1cc(C)c2c(n1)sc1c(NCc3ccc(C#N)c(F)c3)nn(C)c12` [Compound 90, 2-fluoro-4-(((1,6,8-trimethyl-1H-pyrazolo[3′,4′:4,5]thieno[2,3-b]pyridin-3-yl)amino)methyl)benzonitrile], the “Emax (%)*” value is reported as 52%, the pEC50 is reported as 6.60 and the EC50 is reported as 250 nM.
